Test systems include EKVX; MDA-N; MCF7; ACHN; HT-29; SNB-19; LOX IMVI; SF-295; TK-10; 786-0; DU-145; A498; Malme-3M; SF-539; OVCAR-4; SK-OV-3; UO-31; PC-3; BT-549; K562.
Common to all, as to assay: growth of human tumour cells (NCI), 48 h

Structures can show the parent of a compound that is named as a salt.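 Tested at 5 concentrations; 48 h exposure; 96-well plates; endpoints linearly interpolated, else capped at highest concentration. The concentration for 50% growth inhibition is given as GI50.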 Activity calls are given as the source filed them. Cut-off read from the data, not from the text of the source: active = GI50 up to about 1.1 µM and inactive = higher. Where only a bound is given, the exact number is not on record here.

Take `O=S1(=O)NC2CCC3NS(=O)(=O)NC4CCC(N1)N4S(=O)(=O)N23` (configuration not stated): the GI50 in the assay with EKVX, with MDA-N, with MCF7, with ACHN, with HT-29 and in the assay on SNB-19 was > 100 µM (inactive) throughout. In addition, the GI50 with LOX IMVI, in the assay with SF-295, with TK-10, in the assay on 786-0, with DU-145 and in the assay with A498 was > 100 µM (inactive) throughout. The GI50 in the assay on Malme-3M, in the assay on SF-539, with OVCAR-4, in the assay on SK-OV-3, with UO-31 and in the assay with PC-3 was > 100 µM (inactive) throughout. The GI50 with BT-549 and in the assay with K562 was > 100 µM (inactive) throughout.
`Cc1cc(S(=O)(=O)N=C2NCC(C)(C)CN2)c(S)cc1Cl`: the GI50 is 48.8 µM (inactive) in the assay on EKVX; 22.2 µM (inactive) with MDA-N; 42.5 µM (inactive) in the assay with MCF7; 24.1 µM (inactive) in the assay with ACHN; 19.3 µM (inactive) in the assay with HT-29; 36.6 µM (inactive) with SNB-19. Further, the GI50 in the assay on LOX IMVI is 15.5 µM (inactive); in the assay with TK-10, 39 µM (inactive); with 786-0 it was 32.1 µM (inactive); in the assay with DU-145 it was 83.6 µM (inactive); in the assay with A498, > 100 µM (inactive); in the assay with Malme-3M, 44.7 µM (inactive). Moreover, the GI50 in the assay with SF-539 is 40.6 µM (inactive); in the assay with OVCAR-4 it was 17.6 µM (inactive); with SK-OV-3, > 100 µM (inactive); in the assay with UO-31, 44.1 µM (inactive); in the assay with PC-3, 30.3 µM (inactive); with BT-549, 29.5 µM (inactive). The GI50 with K562 was 25.5 µM (inactive).
For the molecule `NCCOc1cccc(C2(N3CCCCC3)CCCCC2)c1`, the GI50 in the assay with EKVX was 21.5 µM (inactive); in the assay on MDA-N it was 18.5 µM (inactive); in the assay on MCF7, 38.8 µM (inactive); in the assay on ACHN, > 100 µM (inactive); with HT-29 it was 15.5 µM (inactive); with SNB-19 it was > 100 µM (inactive). Moreover, the GI50 was 14.7 µM (inactive) with LOX IMVI; 28.8 µM (inactive) in the assay on SF-295; 33.7 µM (inactive) in the assay with TK-10; 13.3 µM (inactive) in the assay with 786-0; > 100 µM (inactive) in the assay with DU-145; 30 µM (inactive) in the assay on A498. In addition, the GI50 with Malme-3M was 20.1 µM (inactive); in the assay on SF-539 it was 17.5 µM (inactive); in the assay with OVCAR-4, 35.9 µM (inactive); in the assay on SK-OV-3, > 100 µM (inactive); with UO-31, 13.7 µM (inactive); with PC-3, 31.5 µM (inactive). Further, the GI50 in the assay with BT-549 is 19.1 µM (inactive); in the assay on K562 it was 16 µM (inactive).
Turning to `COc1ccc(P2(=S)Oc3ccccc3-c3ccccc3O2)cc1`, the GI50 in the assay on MDA-N is 0.147 µM (active); with MCF7, 0.377 µM (active); in the assay with ACHN, 0.728 µM (active); with HT-29, 0.274 µM (active); in the assay with SNB-19 it was 0.521 µM (active); with LOX IMVI, 0.661 µM (active). For the same molecule, the GI50 in the assay with SF-295 was 0.296 µM (active); with 786-0 it was 0.531 µM (active); with DU-145, 0.542 µM (active); with A498, 0.306 µM (active); in the assay with Malme-3M, 0.438 µM (active); in the assay with SF-539 it was 0.266 µM (active). The GI50 with OVCAR-4 was 4.25 µM (inactive); in the assay on UO-31, 0.518 µM (active); in the assay on PC-3 it was 0.193 µM (active); in the assay with BT-549, > 100 µM (inactive); in the assay on K562, 0.196 µM (active).
`CC1=C(C)C(=O)C(C2=C(C3=CC(=O)C(C)=C(C)C3=O)C(=O)C(C)=C(C)C2=O)=CC1=O`: the GI50 in the assay on EKVX was 20.8 µM (inactive); in the assay on MDA-N, 2.65 µM (inactive); in the assay with MCF7 it was 2.67 µM (inactive); with ACHN, 5.79 µM (inactive); in the assay on HT-29 it was 3.01 µM (inactive); in the assay with SNB-19, > 56.8 µM (inactive). The GI50 is 2.57 µM (inactive) in the assay with LOX IMVI; 17.7 µM (inactive) in the assay on SF-295; 12 µM (inactive) in the assay on TK-10; 5.06 µM (inactive) in the assay on 786-0; 14 µM (inactive) with DU-145; 14.3 µM (inactive) with A498. Besides, the GI50 is 3.1 µM (inactive) with Malme-3M; 2.17 µM (inactive) in the assay on SF-539; 1.79 µM (inactive) with OVCAR-4; 17.4 µM (inactive) in the assay with SK-OV-3; 4.59 µM (inactive) with UO-31; 4.62 µM (inactive) in the assay on PC-3. Besides, in the assay with BT-549, the GI50 was 10 µM (inactive).
Regarding `CC(C)CC(NC(=O)C(CSc1ccc([N+](=O)[O-])cc1)Cc1ccccc1)C(=O)Nc1ccccc1` (configuration not stated), the GI50 was > 100 µM (inactive) in the assay on EKVX; > 100 µM (inactive) in the assay with MDA-N; 63.7 µM (inactive) in the assay with MCF7; 80.7 µM (inactive) in the assay with ACHN; 45.5 µM (inactive) with SNB-19; > 100 µM (inactive) with LOX IMVI. Besides, the GI50 with SF-295 was 39.1 µM (inactive); in the assay on TK-10, 58.2 µM (inactive); in the assay on 786-0, 44.7 µM (inactive); with DU-145, 89.3 µM (inactive); in the assay with A498, > 100 µM (inactive); with Malme-3M it was 27 µM (inactive). For the same molecule, the GI50 in the assay with SF-539 was 47.9 µM (inactive); with OVCAR-4, 35.1 µM (inactive); in the assay on SK-OV-3, > 100 µM (inactive); with UO-31, 43.1 µM (inactive); in the assay on PC-3, > 100 µM (inactive); in the assay with BT-549, 12.3 µM (inactive). Besides, the GI50 in the assay with K562 was 85.5 µM (inactive).
As to `NCCc1ccc(S(=O)(=O)O)cc1[N+](=O)[O-]`, the GI50 with EKVX, in the assay on MDA-N, with MCF7, in the assay on ACHN, in the assay with HT-29 and in the assay with SNB-19 was > 100 µM (inactive) in each case. Further, the GI50 with LOX IMVI, in the assay on SF-295, in the assay with TK-10, in the assay on 786-0, with DU-145 and with A498 was > 100 µM (inactive) throughout. For the same molecule, the GI50 in the assay on Malme-3M, in the assay with SF-539, in the assay on OVCAR-4, in the assay with SK-OV-3, in the assay on UO-31 and in the assay on PC-3 was > 100 µM (inactive) throughout. Moreover, the GI50 in the assay with BT-549 was > 100 µM (inactive).
As for `CC[C@]12C=CCN3CCC4(c5cc([C@@]6(C(=O)OC)CC7CN(CCc8c6[nH]c6ccccc86)C[C@@H]6CCCC[C@H]76)c(OC)cc5N(C)C4[C@](O)(C(=O)OC)C1OC(C)=O)[C@@H]32` (some centres not stated), the GI50 with MDA-N, in the assay on MCF7, with ACHN, in the assay with HT-29, in the assay with SNB-19 and in the assay on LOX IMVI was < 0.01 µM (active) throughout. The GI50 in the assay on SF-295, in the assay with TK-10, with 786-0, with DU-145, in the assay with A498 and in the assay on Malme-3M was < 0.01 µM (active) each time. In addition, the GI50 in the assay with SF-539 is < 0.01 µM (active); in the assay on OVCAR-4, 5.2 µM (inactive); in the assay on SK-OV-3, < 0.01 µM (active); in the assay with UO-31, < 0.0299 µM (active); in the assay with PC-3, < 0.01 µM (active); in the assay with BT-549, 1.32 µM (inactive).
In the case of `Oc1cc(-c2cccc(Cl)c2)nc2cc3c(cc12)OCO3`, the GI50 in the assay on MDA-N is 0.0255 µM (active); in the assay with MCF7, 2.83 µM (inactive); in the assay on ACHN, 0.402 µM (active); with HT-29, 2 µM (inactive); with SNB-19, 0.726 µM (active); with LOX IMVI, 0.305 µM (active). In addition, the GI50 in the assay with TK-10 is 6.31 µM (inactive); with 786-0 it was 0.294 µM (active); with DU-145 it was 0.284 µM (active); in the assay on A498, 0.371 µM (active); in the assay with Malme-3M, 0.138 µM (active); in the assay with SF-539, 0.257 µM (active). Also, the GI50 in the assay with OVCAR-4 was > 75 µM (inactive); in the assay with SK-OV-3 it was 0.326 µM (active); with UO-31 it was 0.33 µM (active); in the assay on PC-3 it was 0.308 µM (active); with BT-549, 0.284 µM (active).
As for `CN[C@@H]1[C@H](O)[C@H](NC)[C@H]2O[C@@]3(O)C(=O)C[C@@H](C)O[C@H]3O[C@@H]2[C@H]1O` [SPECTINOMYCIN SULFATE], the GI50 in the assay on EKVX, in the assay on MDA-N, in the assay with MCF7, with ACHN, with HT-29 and in the assay on SNB-19 was > 100 µM (inactive) in each case. The GI50 was > 100 µM (inactive) in the assay with LOX IMVI; > 100 µM (inactive) in the assay on SF-295; > 10 µM (inactive) in the assay on 786-0; > 100 µM (inactive) in the assay with DU-145; > 100 µM (inactive) in the assay on A498; > 100 µM (inactive) in the assay on Malme-3M. Besides, the GI50 in the assay with SF-539, in the assay with OVCAR-4, in the assay with SK-OV-3, in the assay with UO-31, in the assay with PC-3 and in the assay on BT-549 was > 100 µM (inactive) in each case. For the same molecule, in the assay on K562, the GI50 is > 100 µM (inactive).
